# Reference: patent publication US20210363170A1, “4'-THIO-NUCLEOTIDE AND -NUCLEOSIDE PRODRUGS FOR THE TREATMENT OF CANCER” (Southern Research Institute, priority 2018, published 2021)
# Read-outs that look alike come from different tables or passages of the source.
# Columns and labels:
# Type in all cases: cell-based
# CCRF-CEM cells = experiment: Cell viability assay (CellTiter Glo, 72 hours) in CEM cells
# Method: (§1) KG1a (CCL-246.1, ATCC) and CCRF-CEM (CCL-199, ATCC) cells were grown in RPMI-1640 media containing 10% FBS in T-75 flasks to a density of 1×10^6 cells per mL. Exponentially gown cells were used for the assay. Day 1: 7.5×10^3 cells were seeded in each well of 96 well plate. Day 2: Cells were treated with serial dilutions of each compound (starting 20 uM) or with DMSO as control for 72 hours. Day 5: CellTiter Glo (G9241, Promega) was added to the media of each well and measured by plate reader (Synergy 4, Biotek). Data analysis: Using GraphPad Prism 7 (GraphPad).
# DNMT-1 = experiment: Western blot analysis of DNMT-1 in CEM cells; conditions: DNMT-1 depletion in CEM cells, 96 hours
# Method: Cells were treated with serial dilutions of each compound (starting 100 uM for HCT-116 and NCI-H23 cells, and 20 uM for KG-1a and CCRF-CEM cells) or with DMSO as control for 96 hours. Cell lysates were collected and proteins were separated with a SDS-PAGE gel, transferred to a nitrocellulose membrane, blocked in 5% non-fat milk in TBS-T, and probed with anti DNMT-1 (1:7000) rabbit polyclonal antibodies (cat #ab19905, Abcam) in 5% non-fat milk in TBS-T overnight. Membranes were washed three times with TBS-T. The anti-rabbit IgG (7074p2, Cell Signaling) secondary antibody was added at a concentration of 1:5000 in 5% non-fat milk in TBS-T for two hours in room temperature. Membranes were then washed three times with TBS-T, 5 minutes each time. Membranes were then incubated with SuperSignal West Pico Chemiluminescent Substrate (#34080 Thermo) and exposed onto film. Membranes were stripped with stripping buffer (#21059, Thermo) and re-probed with mouse anti tubulin 1:10,000 (T9026, Sigma) and anti-mouse IgG 1:5,000 (70′76p2, Cell Signaling).
# KG-1a cells = experiment: Cell viability assay (CellTiter Glo, 72 hours) in KG-1a cells
# Method: as §1
# [1] = Homo sapiens, CCRF-CEM, 72 h, read-out: Cell Line IC50 (μM) CEM
# [2] = Homo sapiens, KG-1a, 72 h, read-out: Cell Line IC50 (μM) KG-1a
# [3] = read-out: Cell Line IC50 (μM) CEM
# [4] = read-out: Cell Line IC50 (μM) KG-1a
SMILES,IC50 (CCRF-CEM cells; [1]) [µM],IC50 (KG-1a cells; [2]) [µM],IC50 (DNMT-1) [nM],also measured
"CC(C)COC(=O)[C@H](C)NP(=O)(OC[C@H]1S[C@@H](n2cnc(N)nc2=O)CC1O)Oc1cccc2ccccc12 (single isomer, unassigned) [Compound 10 Diastereomer 1]",0.2,0.3,,IC50 (DNMT-1; listed as 10 Diastereomer 1): 600 nM
"CC(C)OC(=O)[C@H](C)NP(=O)(OC[C@H]1S[C@@H](n2cnc(N)nc2=O)C[C@@H]1O)Oc1cccc2ccccc12 (single isomer, unassigned) [Compound 12 Diastereomer 1]",,0.6,,"IC50 (CCRF-CEM cells; listed as 12 Diastereomer 1, read-out: Cell Line IC50 (μM) CEM): 0.3 µM; IC50 (DNMT-1; listed as 12 Diastereomer 1): 800 nM"
"CCOC(=O)[C@H](C)N[P@](=O)(OC[C@H]1S[C@@H](n2cnc(N)nc2=O)C[C@@H]1O)Oc1ccccc1 [Compound 6, Ethyl ((S)-(((2R,3S,5R)-5-(4-amino-2-oxo-1,3,5-triazin-1(2H)-yl)-3-hydroxytetrahydrothiophen-2-yl)-methoxy)(phenoxy)-phosphoryl)-L-alaninate]",1.73,0.31,350,
"CC(C)OC(=O)[C@H](C)N[P@](=O)(OC[C@H]1S[C@@H](n2cnc(N)nc2=O)C[C@@H]1O)Oc1ccccc1 [Compound 4, Isopropyl ((S)-(((2R,3S,5R)-5-(4-amino-2-oxo-1,3,5-triazin-1(2H)-yl)-3-hydroxytetrahydrothiophen-2-yl)methoxy)(phenoxy)phosphoryl)-L-alaninate]",0.24,0.57,850,
"C[C@H](NP(=O)(OC[C@H]1S[C@@H](n2cnc(N)nc2=O)CC1O)Oc1cccc2ccccc12)C(=O)OCc1ccccc1 (single isomer, unassigned) [Compound 9 Diastereomer 2]",,,,"IC50 (CCRF-CEM cells; listed as 9 Diastereomer 2, read-out: Cell Line IC50 (μM) CEM): 0.2 µM; IC50 (DNMT-1; listed as 9 Diastereomer 2): 1400 nM; IC50 (KG-1a cells; listed as 9 Diastereomer 2, read-out: Cell Line IC50 (μM) KG-1a): 0.4 µM"
"CCC(CC)COC(=O)[C@H](C)NP(=O)(OC[C@H]1S[C@@H](n2cnc(N)nc2=O)C[C@@H]1O)Oc1cccc2ccccc12 (single isomer, unassigned) [Compound 11 Diastereomer 1]",0.2,0.6,500,
CC(C)OC(=O)[C@H](C)N[P@](=O)(OC[C@H]1S[C@@H](n2ccc(N)nc2=O)CC1O)Oc1ccccc1 (stereo partly drawn) [Compound 15],0.37,0.9,330,
"C[C@H](N[P@](=O)(OC[C@H]1S[C@@H](n2cnc(N)nc2=O)C[C@@H]1O)Oc1ccccc1)C(=O)OCc1ccc([N+](=O)[O-])o1 [Compound 7, (5-nitrofuran-2-yl)methyl ((S)-(((2R,3S,5R)-5-(4-amino-2-oxo-1,3,5-triazin-1(2H)-yl)-3-hydroxytetrahydro-thiophen-2-yl)-methoxy)(phenoxy)-phosphoryl)-L-alaninate]",1.71,0.76,220,
"C[C@H](NP(=O)(OC[C@H]1S[C@@H](n2cnc(N)nc2=O)CC1O)Oc1ccccc1)C(=O)OC1CCCC1 (single isomer, unassigned) [Compound 8 Diastereomer 2]",,,,IC50 (CCRF-CEM cells; [3]): 1.65 µM; IC50 (DNMT-1; listed as 8 Diastereomer 2): 450 nM; IC50 (KG-1a cells; [4]): 1.04 µM
"CC(C)COC(=O)[C@H](C)NP(=O)(OC[C@H]1S[C@@H](n2cnc(N)nc2=O)CC1O)Oc1cccc2ccccc12 (single isomer, unassigned) [Compound 10 Diastereomer 2]",,,,IC50 (CCRF-CEM cells; [3]): 0.2 µM; IC50 (DNMT-1; listed as 10 Diastereomer 2): 800 nM; IC50 (KG-1a cells; [4]): 0.3 µM
"CCC(CC)COC(=O)[C@H](C)NP(=O)(OC[C@H]1S[C@@H](n2cnc(N)nc2=O)CC1O)Oc1cccc2ccccc12 (single isomer, unassigned) [Compound 11 Diastereomer 2]",0.08,0.6,500,
"CC(C)COC(=O)[C@H](C)N[P@](=O)(OC[C@H]1S[C@@H](n2cnc(N)nc2=O)C[C@@H]1O)Oc1ccccc1 [Compound 2, Isobutyl ((S)-(((2R,3S,5R)-5-(4-amino-2-oxo-1,3,5-triazin-1(2H)-yl)-3-hydroxytetrahydrothiophen-2-yl)methoxy)(phenoxy)phosphoryl)-L-alaninate]",0.24,1.34,800,
"C[C@H](NP(=O)(OC[C@H]1S[C@@H](n2cnc(N)nc2=O)CC1O)Oc1ccccc1)C(=O)OC1CCCC1 (single isomer, unassigned) [Compound 8 Diastereomer 1]",2.08,0.6,,IC50 (DNMT-1; listed as 8 Diastereomer 1): 330 nM
"CC(C)OC(=O)[C@H](C)NP(=O)(OC[C@H]1S[C@@H](n2cnc(N)nc2=O)C[C@@H]1O)Oc1cccc2ccccc12 (single isomer, unassigned) [Compound 12 Diastereomer 2]",,,,"IC50 (CCRF-CEM cells; listed as 12 Diastereomer 2, read-out: Cell Line IC50 (μM) CEM): 0.1 µM; IC50 (DNMT-1; listed as 12 Diastereomer 2): 1000 nM; IC50 (KG-1a cells; [4]): 0.7 µM"
CCC(CC)COC(=O)[C@H](C)N[P@](=O)(OC[C@H]1S[C@@H](n2ccc(N)nc2=O)CC1O)Oc1ccccc1 (stereo partly drawn) [Compound 14],0.15,0.62,1000,
"COC(=O)[C@H](C)N[P@](=O)(OC[C@H]1S[C@@H](n2cnc(N)nc2=O)C[C@@H]1O)Oc1ccccc1 [Compound 5, Methyl ((S)-(((2R,3S,5R)-5-(4-amino-2-oxo-1,3,5-triazin-1(2H)-yl)-3-hydroxytetrahydrothiophen-2-yl)-methoxy)(phenoxy)-phosphoryl)-L-alaninate]",2.06,1.67,610,
"C[C@H](NP(=O)(OC[C@H]1S[C@@H](n2cnc(N)nc2=O)CC1O)Oc1cccc2ccccc12)C(=O)OCc1ccccc1 (single isomer, unassigned) [Compound 9 Diastereomer 1]",,,,"IC50 (CCRF-CEM cells; listed as 9 Diastereomer 1, read-out: Cell Line IC50 (μM) CEM): 0.5 µM; IC50 (DNMT-1; listed as 9 Diastereomer 1): 300 nM; IC50 (KG-1a cells; listed as 9 Diastereomer 1, read-out: Cell Line IC50 (μM) KG-1a): 1.1 µM"
"Nc1ccn([C@H]2C[C@@H](O)[C@@H](CO)S2)c(=O)n1 [T-dCyd, 4-amino-1-[(2R,4R,5R)-4-hydroxy-5-(hydroxymethyl)thiolan-2-yl]pyrimidin-2-one, reference compound]",,,470,"IC50 (CCRF-CEM cells; Homo sapiens, CCRF-CEM, read-out: Cell Line IC50 (μM) CEM): 0.08 µM; IC50 (KG-1a cells; Homo sapiens, read-out: Cell Line IC50 (μM) KG-1a): 0.48 µM"
"C[C@H](N[P@](=O)(OC[C@H]1S[C@@H](n2cnc(N)nc2=O)C[C@@H]1O)Oc1ccccc1)C(=O)OCc1ccccc1 [Compound 1, Benzyl ((S)-(((2R,3S,5R)-5-(4-amino-2-oxo-1,3,5-triazin-1(2H)-yl)-3-hydroxytetrahydrothiophen-2-yl)methoxy)(phenoxy)phosphoryl)-L-alaninate]",0.13,0.92,1200,
